What was measured:
α-Glucosidase [1] = settings: Figure 1; reference not given; cited from earlier work
[2] = DPPH radical scavenging assay; settings: mean ± SD, n = 4
Description: The scavenging of free radicals by the synthesized compounds was assessed based on the previously reported DPPH radical assay, with slight modifications. The reaction mixture consisted of 50 µL of compound in DMSO at various concentrations (from 2.5 mM to 0.2 mM) and 150 µL of DPPH solution at 133.33 µM in absolute ethanol. The reaction components were added at a ratio of 1:3 (v/v). The mixture was incubated at 37 °C for 30 min before absorbance was read at 517 nm using a microplate reader (Epoch, BioTek®). Butylhydroxytoulene (BHT) served as the positive control. Scavenging capacity (%) is expressed as the percentage decrease in DPPH. SC% = [(Acontrol − Atest)/Acontrol] × 100 where Acontrol is absorbance of the DPPH solution (control) and Atest is the absorbance of the solution of DPPH and one of the compounds.

α-amylase [3] = target: T1, α-amylase (Sus scrofa, UniProt P00690); assay: α-Amylase inhibition assay (starch/DNS); format: biochemical, porcine; settings: mean ± SD, n = 4; for inhibition at 100 µM: NI = no inhibition; for IC50: compounds precipitate at 200 µM;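 for all read-outs here: reducing sugar measured by DNS colour at 540 nm, inhibition relative to enzyme reaction lacking test compound, blank without enzyme subtracted for background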
T1 construct: purchased Sigma-Aldrich; host or cells: porcine pancreas
T1 sequence (P00690 16-511): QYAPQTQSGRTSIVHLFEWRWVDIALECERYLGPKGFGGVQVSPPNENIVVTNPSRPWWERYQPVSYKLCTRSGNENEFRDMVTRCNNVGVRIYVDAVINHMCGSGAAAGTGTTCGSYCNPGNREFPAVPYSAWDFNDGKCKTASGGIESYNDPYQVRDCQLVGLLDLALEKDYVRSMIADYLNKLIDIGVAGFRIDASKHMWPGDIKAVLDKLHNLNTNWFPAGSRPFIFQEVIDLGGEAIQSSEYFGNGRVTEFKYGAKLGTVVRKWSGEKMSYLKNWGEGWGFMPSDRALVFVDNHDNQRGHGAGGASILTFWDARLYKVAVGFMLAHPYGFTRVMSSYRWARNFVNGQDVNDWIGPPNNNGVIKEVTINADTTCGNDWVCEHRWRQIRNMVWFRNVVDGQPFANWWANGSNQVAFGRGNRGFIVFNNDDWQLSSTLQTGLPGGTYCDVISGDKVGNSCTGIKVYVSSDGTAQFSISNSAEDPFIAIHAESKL
Description: α-Amylase inhibitory activity was quantified according to the method developed by Chokki et al., with some modifications [65]. […] Finally, 100 µL of 3,5-dinitrosalicylic acid (DNS) was added and heated at 100 °C for 20 min, and absorbance was then read at 540 nm in a microplate reader (Epoch, BioTek®). The reaction system without any test compound was used as the control, and the system without α-amylase served as a blank for correcting background absorbance. The percentage of α-amylase inhibition was calculated for each sample with Equation (2):(2) % inhibition=Control absorbance−sample absorbance/Control absorbance×100
(§2) All measurements were performed in quadruplicate and the values are expressed as the mean ± standard deviation.

α-glucosidase [4] = assay: α-Glucosidase inhibition assay (p-NPG substrate); format: biochemical, Saccharomyces cerevisiae; settings: mean ± SD, n = 4
Description: The inhibitory activity of the compounds on α-glucosidase inhibition was quantified according to the method described by Salehi et al., with slight modifications [64]. A reaction was prepared by mixing 20 µL α-glucosidase solution (0.5 unit/mL), 120 µL 0.1 M phosphate buffer (pH 6.9), and 10 µL of the samples at concentrations from 400 µM to 4.0 µM. The solution was incubated in a 96-well microplate at 37 °C for 15 min. The enzymatic reaction was initiated by adding 20 µL of 5 mM p-NPG solution to 0.1 M phosphate buffer (pH 6.9), followed by incubation at 37 °C for 15 min. The reaction was stopped by adding 80 µL of 0.2 M sodium carbonate solution, and absorbance was read at 405 nm in a microplate reader (Epoch®, BioTek Instrument, Winooski, EUA). The reaction system without any test compounds was used as control, whereas the system without α-glucosidase served as blank for correcting background absorbance. The rate of α-glucosidase inhibition exerted by each sample was calculated with Equation (1):(1) % inhibition=Control absorbance−sample absorbance/Control absorbance×100
as §2

α-glucosidase [5] = assay: Enzymatic kinetic study on α-glucosidase (Lineweaver–Burk); format: biochemical, Saccharomyces cerevisiae; settings: for Type of inhibition of α-glucosidase: Lineweaver–Burk plots; for Ki: p-NPG 0.5–5.0 mM, nonlinear regression
Description: The X-axis values represent the reciprocal for the α-glucosidase substrate, p-nitrophenyl-α-D-glucopyranoside (p-NPG), while for the α-amylase substrate they represent starch, thus being 1/(starch). The Y-axis values are the reciprocal of the reaction velocity (Vo), thus being 1/Vo.
(§1) To explore the type of enzyme inhibition, kinetic studies were carried out with α-glucosidase and α-amylase using a methodology such as that described in the inhibitory activity assays. The alkoxy-substituted xanthones were evaluated at four different concentrations according to their IC50. Various concentrations of substrates were used for each of the enzymes in the range of 0.5–5.0 mM for p-NPG in α-glucosidase and 0.1–1.0% for α-amylase. The type of inhibition for each test compound was determined by utilizing double reciprocal plots. Inhibition constants (KI) were calculated from substrate versus reaction rate curves using nonlinear regression of the enzyme inhibition kinetic function.

α-amylase [6] = target: T1, α-amylase; assay: Enzymatic kinetic study on α-amylase (Lineweaver–Burk); format: biochemical, porcine; settings: for Type of inhibition of α-amylase: Lineweaver–Burk plots; for Ki: starch 0.1–1.0%, nonlinear regression
Description: These KI values indicate that 6c has greater affinity for the enzyme.
as §1

Row | SMILES | IC50 (α-Glucosidase [1]) | % DPPH Scavenging Activity (2.5 mM) [2] | inhibition at 100 µM (α-amylase [3]) | IC50 (α-amylase [3]) | α-Glucosidase Inhibition (%) at 400 µM (α-glucosidase [4]) | IC50 (α-glucosidase [4]) | Type of inhibition of α-glucosidase (α-glucosidase [5]) | Ki (α-glucosidase [5]) | Type of inhibition of α-amylase (α-amylase [6]) | Ki (α-amylase [6]) | melting point
1 | Cc1cc(C)n(-c2ccc(-n3c(-c4ccccc4)nc(-c4ccccc4)c3-c3ccccc3)cc2)n1 [Imidazole-pyrazole] | 105 µM | – | – | – | – | – | – | – | – | – | –
2 | COc1c(O)cc2oc3cc(O)c(CC=C(C)C)c(O)c3c(=O)c2c1CC=C(C)C [α-Mangostin, α-mangostin] | 5 µM | – | – | – | – | – | – | – | – | – | –
3 | C=CCc1c(OCCCCBr)c(OC)cc2oc3ccccc3c(=O)c12 [Compound 9b, 1-Allyl-2-(4-bromobutoxy)-3-methoxy-9H-xanthen-9-one] | – | 17.6 ± 1.17 ^D % | 3.87 ± 0.11% | > 200 µM | 96.3 ± 0.2% | 4 ± 0.007 µM | mixed mode | 1.25 µM | – | – | –
4 | COc1cc2oc3ccccc3c(=O)c2cc1OCC(=O)c1ccc(Cl)cc1 [Compound 6c, 2-(2-(4-Chlorophenyl)-2-oxoethoxy)-3-methoxy-9H-xanthen-9-one] | – | 8.7 ± 0.67 ^G % | 64.8 ± 0.15% | 76.7 ± 0.03 µM | 92.6 ± 0.11% | 16 ± 0.03 µM | mixed mode | 21.5 µM | competitive type of inhibitor | 63.2 µM | 175 to 176 °C
5 | COc1cc2oc3ccccc3c(=O)c2cc1OCCCCn1ccnc1-c1ccc(Cl)cc1 [Compound 10c, 2-(4-(2-(4-Chlorophenyl)-1H-imidazol-1-yl)butoxy)-3-methoxy-9H-xanthen-9-one] | – | 11.6 ± 1.54 ^F,G % | 99.5 ± 0.1% | 5.4 ± 0.07 µM | 95.1 ± 0.15% | 232.7 ± 0.11 µM | mixed mode | 139 µM | mixed-type inhibitor | 2.2 µM | –
6 | O=c1c2c(O)cc(O)cc2oc2cc(O)c(-c3c(O)ccc4ccc(O)cc34)c(O)c12 [Dihydroxynaphtalenyl-xanthone] | 47.6 µM | – | – | – | – | – | – | – | – | – | –
7 | Clc1ccc(-c2nc(-c3ccccc3)n3c2-c2[nH]c4ccccc4c2CC3)cc1 [Carbazole-imidazole] | 81 µM | – | – | – | – | – | – | – | – | – | –
